Measurements as given in patent publication US11976083B2, “Inhibitors of peptidylarginine deiminases” (Gilead Sciences, Inc., priority 2020, dated 2024).

target: T1, human PAD4 (Homo sapiens, UniProt Q9UM07); assay: In vitro PAD4 BAEE biochemical assay; details: BAEE substrate 3 mM, 5 nM PAD4, 2 mM calcium chloride; geometric mean of multiple experiments
T1 construct: human PAD4 (NM_012387), A2-P663, was PCR amplified; His-SUMO (N, cleaved yes); made in house; host or cells: E. coli BL21(DE3)
Outline: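 PAD4 5 nM, CaCl2 2 mM, BAEE 3 mM final; 50 mM MOPS pH 7.6, 50 mM NaCl, 0.05% Tween-20, 2 mM DTT. Cpd + enzyme 30 min 25 °C; substrate 2 h 25 °C; EDTA stop; OPA detection 1 h. IC50 4-parameter fit.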

T1 sequence (Q9UM07 2-663): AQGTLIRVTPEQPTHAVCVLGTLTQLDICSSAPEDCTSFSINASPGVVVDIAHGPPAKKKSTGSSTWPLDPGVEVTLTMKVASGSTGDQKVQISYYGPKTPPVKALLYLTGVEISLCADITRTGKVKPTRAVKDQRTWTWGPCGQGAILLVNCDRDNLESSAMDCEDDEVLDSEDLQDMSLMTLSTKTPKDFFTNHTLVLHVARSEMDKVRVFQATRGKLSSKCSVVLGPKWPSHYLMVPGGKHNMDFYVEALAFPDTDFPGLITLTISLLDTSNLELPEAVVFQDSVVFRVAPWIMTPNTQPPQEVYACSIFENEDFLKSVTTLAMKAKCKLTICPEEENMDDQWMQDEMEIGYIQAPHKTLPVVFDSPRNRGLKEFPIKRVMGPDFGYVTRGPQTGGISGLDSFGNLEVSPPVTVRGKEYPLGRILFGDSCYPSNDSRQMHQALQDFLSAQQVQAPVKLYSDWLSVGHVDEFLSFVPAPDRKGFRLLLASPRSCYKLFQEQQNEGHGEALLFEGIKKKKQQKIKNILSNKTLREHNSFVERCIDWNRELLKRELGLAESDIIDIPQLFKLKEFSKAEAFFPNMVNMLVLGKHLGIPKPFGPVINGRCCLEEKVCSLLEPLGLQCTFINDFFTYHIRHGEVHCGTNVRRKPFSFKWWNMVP

Structure (SMILES)	IC50
COc1cc(C(=O)N2C[C@H](N)[C@@H]3CC[C@H]2C3)cc2nc(-c3cc4ccc5nc4n3CCCCCOC3(CC3)C(=O)N[C@@H]5C)n(C)c12 [Example 910, (11~{R})-17-[5-[(1~{S},4~ {R},5~{R})-4-amino-2-azabicyclo [3.2.1]octane-2-carbonyl]-7-methoxy-1-methyl-benzimidazol-2-yl]-11-methyl-spiro[7-oxa-1,10,19-triazatricyclo[10.5.2.0^{15,18}]nonadeca-12(19), 13,15(18),16-tetraene-8,1′-cyclopropane]-9-one]	49 nM
C[C@H]1NC(=O)c2c(C3CC3)cc(Cl)nc2CCCCCn2c(-c3nc4cc(C(=O)N5C[C@H](N)[C@@H]6CC[C@H]5C6)cc(F)c4n3C3CC3)cc3ccc1nc32 [Example 911, (2~{R})-17-[5-[(1~{S},4~{R}, 5~{R})-4-amino-2-azabicyclo[3.2.1]octane-2-carbonyl]-1-cyclopropyl-7-fluoro-benzimidazol-2-yl]-8-chloro-6-cyclopropyl-2-methyl-3,9,16,22-tetrazatetracyclo[14.5.2.0^ {5,10}.0^{19,23}]tricosa-1(22),5(10),6,8,17,19(23),20-heptaen-4-one]	61 nM
C[C@H]1NC(=O)c2ccnn2CCCCCn2c(-c3nc4cc(C(=O)N5C[C@H](N)[C@@H]6CC[C@H]5C6)cc(F)c4n3C3CC3)cc3ccc1nc32 [Example 912, (2~{R})-16-[5-[(1~{S},4~{R},5~ {R})-4-amino-2-azabicyclo [3.2.1]octane-2-carbonyl]-1-cyclopropyl-7-fluoro-benzimidazol-2-yl]-2-methyl-3,8,9,15,21-pentazatetracyclo [13.5.2.0^{5,9}.0^{18,22}] docosa-1(21),5,7,16,18(22),19-hexaen-4-one]	17 nM
C[C@H]1NC(=O)[C@@H]2C[C@H]2CCCCCn2c(-c3nc4cc(C(=O)N5C[C@H](N)[C@@H]6CC[C@H]5C6)ccc4n3C3CC3)cc3ccc1nc32 [Example 913, (2~{R},5~{R},7~{R})-14-[5-[(1~{S},4~{R},5~{R})-4-amino-2-azabicyclo[3.2.1]octane-2-carbonyl]-1-cyclopropyl-benzimidazol-2-yl]-2-methyl-3,13,19-triazatetracyclo [11.5.2.0^{5,7}.0^{16,20}] icosa-1(19),14,16(20),17-tetraen-4-one]	22 nM
C[C@H]1NC(=O)[C@@H]2C[C@H]2CCCC(F)(F)Cn2c(-c3nc4cc(C(=O)N5C[C@H](N)[C@@H]6CC[C@H]5C6)ccc4n3C3CC3)cc3ccc1nc32 [Example 914, (2~{R},5~{R},7~{R})-14-[5-[(1~{S},4~{R},5~{R})-4-amino-2-azabicyclo[3.2.1]octane-2-carbonyl]-1-cyclopropyl-benzimidazol-2-yl]-11,11-difluoro-2-methyl-3,13,19-triazatetracyclo[11.5.2.0^ {5,7}.0^{16,20}]icosa-1(19), 14,16(20),17-tetraen-4-one]	16 nM
COc1cc(C(=O)N2C[C@H](N)[C@@H]3CC[C@H]2C3)cc2nc(-c3cc4ccc5nc4n3CCCCC[C@@]3(F)C[C@]3(C)C(=O)N[C@@H]5C)n(C)c12 [Example 915, (2~{R},5~{R},7~{R})-14-[5-[(1~{S},4~{R},5~{R})-4-amino-2-azabicyclo[3.2.1]octane-2-carbonyl]-7-methoxy-1-methyl-benzimidazol-2-yl]-7-fluoro-2,5-dimethyl-3,13,19-triazatetracyclo[11.5.2.0^ {5,7}.0^{16,20}]icosa-1(19),14,16(20),17-tetraen-4-one]	47 nM
COc1cc(C(=O)N2C[C@H](N)[C@@H]3CC[C@H]2C3)cc2nc(-c3cc4ccc5nc4n3CCCCC[C@]3(F)C[C@@]3(C)C(=O)N[C@@H]5C)n(C)c12 [Example 916, (2~{R},5~{S},7~{S})-14-[5-[(1~{S},4~{R},5~{R})-4-amino-2-azabicyclo[3.2.1]octane-2-carbonyl]-7-methoxy-1-methyl-benzimidazol-2-yl]-7-fluoro-2,5-dimethyl-3,13,19-triazatetracyclo[11.5.2.0^ {5,7}.0^{16,20}]icosa-1(19),14,16(20),17-tetraen-4-one]	26 nM
COc1cc(C(=O)N2C[C@H](N)[C@@H]3CC[C@H]2C3)cc2nc(-c3cc4ccc5nc4n3CCCCC[C@@H]3C[C@@]3(C)C(=O)N[C@@H]5C)n(C)c12 [Example 917, (2~{R},5~{R},7~{R})-14-[5-[(1~{S),4~{R},5~{R})-4-amino-2-azabicyclo[3.2.1]octane-2-carbonyl]-7-methoxy-1-methyl-benzimidazol-2-yl]-2,5-dimethyl-3,13,19-triazatetracyclo[11.5.2.0^ {5,7}.0^{16,20}]icosa-1(19), 14,16(20),17-tetraen-4-one]	27 nM
C[C@H]1NC(=O)[C@@H]2C[C@@]2(F)CC[C@@H]2C[C@@H]2Cn2c(-c3nc4cc(C(=O)N5C[C@H](N)[C@@H]6CC[C@H]5C6)cc(F)c4n3C3CC3)cc3ccc1nc32 [Example 918, (3~{S},5~{R},8~{S},10~{S}, 13~{R})-19-[5-[(1~{S), 4~{R},5~{R})-4-amino-2-azabicyclo[3.2.1]octane-2-carbonyl]-1-cyclopropyl-7-fluoro-benzimidazol-2-yl]-8-fluoro-13-methyl-1,12,21-triazapentacyclo[12.5.2.0^ {3,5}.0^{8,10}.0^{17,20}] henicosa-14(21),15, 17(20),18-tetraen-11-one]	31 nM
C[C@H]1NC(=O)[C@@H]2C[C@@]2(F)/C=C/CCCn2c(-c3nc4cc(C(=O)N5C[C@H](N)[C@@H]6CC[C@H]5C6)cc(F)c4n3C3CC3)cc3ccc1nc32 [Example 919, (2~{R},5~{S},7~{R},8~{E})-14-[5-[(1~{S},4~{R},5~{R})-4-amino-2-azabicyclo[3.2.1]octane-2-carbonyl]-1-cyclopropyl-7-fluoro-benzimidazol-2-yl]-7-fluoro-2-methyl-3,13,19-triazatetracyclo[11.5.2.0^ {5,7}.0^{16,20}]icosa-1(19),8,14,16(20),17-pentaen-4-one]	20 nM
C[C@H]1NC(=O)[C@@H]2C[C@@]2(F)CCCCCn2c(-c3nc4cc(C(=O)N5C[C@H](N)[C@@H]6CC[C@H]5C6)cc(F)c4n3CC(F)F)cc3ccc1nc32 [Example 920, (2~{R},5~{S},7~{S})-14-[5-[(1~{S),4~{R},5~{R})-4-amino-2-azabicyclo[3.2.1]octane-2-carbonyl]-1-(2,2-difluoroethyl)-7-fluoro-benzimidazol-2-yl]-7-fluoro-2-methyl-3,13,19-triazatetracyclo [11.5.2.0^{5,7}.0^{16,20}] icosa-1(19),14,16(20),17-tetraen-4-one]	21 nM
C[C@H]1NC(=O)c2ccc(Cl)nc2CCCCCn2c(-c3nc4cc(C(=O)N5C[C@H](N)[C@@H]6CC[C@H]5C6)cc(F)c4n3CC3CC3)cc3ccc1nc32 [Example 921, (2~{R})-17-[5-[(1~{S},4~{R},5~ {R})-4-amino-2-azabicyclo [3.2.1]octane-2-carbonyl]-1-(cyclopropylmethyl)-7-fluoro-benzimidazol-2-yl]-8-chloro-2-methyl-3,9,16,22-tetrazatetracyclo[14.5.2.0^ {5,10}.0^{19,23}]tricosa-1(22),5(10),6,8,17,19(23),20-heptaen-4-one]	30 nM
C[C@H]1NC(=O)[C@@H]2C[C@H]2CCCC(F)(F)Cn2c(-c3nc4cc(C(=O)N5C[C@H](N)[C@@H]6CC[C@H]5C6)cc(F)c4n3CC(F)F)cc3ccc1nc32 [Example 922, (2~{R},5~{R},7~{R})-14-[5-[(1~{S},4~{R},5~{R})-4-amino-2-azabicyclo[3.2.1]octane-2-carbonyl]-1-(2,2-difluoroethyl)-7-fluoro-benzimidazol-2-yl]-11,11-difluoro-2-methyl-3,13,19-triazatetracyclo [11.5.2.0^{5,7}.0^{16,20}] icosa-1(19),14,16(20),17-tetraen-4-one]	35 nM
C[C@H]1NC(=O)[C@@H]2C[C@@]2(F)CCCCCn2c(-c3nc4cc(C(=O)N5C[C@H](N)[C@@H]6CC[C@H]5C6)ccc4n3C3CC3)cc3ccc1nc32 [Example 923, (2~{R},5~{S},7~{S})-14-[5-[(1~{S},4~{R},5~{R})-4-amino-2-azabicyclo[3.2.1]octane-2-carbonyl]-1-cyclopropyl-benzimidazol-2-yl]-7-fluoro-2-methyl-3,13,19-triazatetracyclo [11.5.2.0^{5,7}.0^{16,20}] icosa-1(19),14,16(20), 17-tetraen-4-one]	24 nM
COc1cc(C(=O)N2C[C@H](N)[C@@H]3CC[C@H]2C3)cc2nc(-c3cc4ccc5nc4n3CC(F)(F)CCC[C@@H]3C[C@@]3(C)C(=O)N[C@@H]5C)n(C3CC3)c12 [Example 924, (2~{R},5~{R},7~{R})-14-[5-[(1~{S),4~{R},5~{R})-4-amino-2-azabicyclo[3.2.1]octane-2-carbonyl]-1-cyclopropyl-7-methoxy-benzimidazol-2-yl]-11,11-difluoro-2,5-dimethyl-3,13,19-triazatetracyclo [11.5.2.0^{5,7}.0^{16,20}] icosa-1(19),14,16(20), 17-tetraen-4-one]	46 nM
C[C@H]1NC(=O)c2ccc(Cl)nc2CCCCCn2c(-c3nc4cc(C(=O)N5C[C@H](N)[C@@H]6CC[C@H]5C6)cc(F)c4n3CC(F)F)cc3ccc1nc32 [Example 925, (2~{R})-17-[5-[(1~{S),4~{R},5~ {R})-4-amino-2-azabicyclo[3.2.1]octane-2-carbonyl]-1-(2,2-difluoroethyl)-7-fluoro-benzimidazol-2-yl]-8-chloro-2-methyl-3,9,16,22-tetrazatetracyclo[14.5.2.0^ {5,10}.0^{19,23}]tricosa-1(22),5(10),6,8,17,19(23),20-heptaen-4-one]	40 nM
